{
  "source": "paper PMC12690571",
  "about": "“Green Synthesis of a Hyaluronan-Based Multimeric A9 Peptide System: Polysaccharide-A9 Conjugate with Enhanced HER2 Receptor Binding Affinity and Potential Biomedical Applications as an Active Material” (Biomacromolecules, 2025)",
  "origin": "cited, not measured here",
  "test_system": "HER2 receptor",
  "parameters": "method as in not printed at the place",
  "details": "A9 peptide; introduction, earlier work, ref not given",
  "data": [
    {"substance": "H-QDVNTAVAW-NH2 [A9]", "values": [
      {"measurement": "binding affinity to HER2 receptor (in words)", "result": "binds with high affinity"}
    ]}
  ]
}
